Where a name gives a salt, the structure may show the parent alone. Read-outs that look alike come from different tables or passages of the source.
Target: T1, human A3AR (Homo sapiens, UniProt P0DMS8)
T1 construct: expressed in transfected cells
T1 sequence (P0DMS8 1-318): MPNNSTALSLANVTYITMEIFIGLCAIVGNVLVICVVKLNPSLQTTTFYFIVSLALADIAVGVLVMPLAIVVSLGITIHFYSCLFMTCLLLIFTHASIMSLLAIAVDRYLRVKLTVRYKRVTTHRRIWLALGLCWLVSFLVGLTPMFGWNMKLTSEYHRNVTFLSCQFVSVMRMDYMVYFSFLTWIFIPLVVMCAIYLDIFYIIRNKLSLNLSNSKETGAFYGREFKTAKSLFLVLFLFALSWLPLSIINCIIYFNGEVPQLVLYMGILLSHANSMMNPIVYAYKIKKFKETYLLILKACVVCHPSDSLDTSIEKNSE
Assay: LOPAC library primary screen: single concentration (10 μM) inhibition of 25 nM CA200645 binding, PHERAstar FS

[1] = compounds tested at 10 µM, % of control wells (1% DMSO and 25 nM CA200645), whole live cells expressing the A3AR, mean ± SD, three experiments in duplicate
[2] = % of control wells (1% DMSO and 25 nM CA200645), compounds at 10 µM, whole live cells expressing the A3AR, mean ± SD, three experiments in duplicate

N#CCCN.N#CCCN.O=C(O)/C=C/C(=O)O [3-Aminopropionitrile fumarate]
% 25 nM CA200645 binding: 91.9 ± 6.3%

Br.Cc1cccc(C2CN(C)CCc3c2cc(O)c(O)c3Cl)c1 (stereo not shown) [SKF 83959 hydrobromide]
% 25 nM CA200645 binding: 97.9 ± 6.2%

COC(=O)[C@H]1[C@H]2C[C@@H]3c4[nH]c5cc(OC)ccc5c4CCN3C[C@H]2C[C@@H](OC(=O)c2cc(OC)c(OC)c(OC)c2)[C@@H]1OC [Reserpine]
% 25 nM CA200645 binding: 83.8 ± 14.9%

CN(C)CCC(c1ccc(Br)cc1)c1ccccn1.O=C(O)/C=C\C(=O)O (racemic) [(±)-Brompheniramine maleate]
% 25 nM CA200645 binding: 101.5 ± 4.3%

CC[C@H]1CN2CCc3cc(OC)c(OC)cc3[C@@H]2C[C@@H]1C[C@H]1NCCc2cc(OC)c(OC)cc21 [Emetine dihydrochloride hydrate]
% 25 nM CA200645 binding: 102.7 ± 9.1%

COc1ccc(/C=C2\COc3ccc(C)cc3C2=O)cc1O [IMS2186]
% 25 nM CA200645 binding: 95.7 ± 10.2%

O=C(O)CN(CCN(CC(=O)O)CC(=O)O)CCN(CC(=O)O)CC(=O)O [Diethylenetriaminepentaacetic acid]
% 25 nM CA200645 binding: 99.2 ± 10.9%

CCc1cc(Cl)c(O)c(C(=O)NC[C@@H]2CCCN2CC)c1OC.Cl [S-(-)-Eticlopride hydrochloride]
% 25 nM CA200645 binding: 96.8 ± 1.1%

CC(C)NCC(O)c1ccc(O)c(O)c1.Cl (single isomer, unassigned; (-)) [(-)-Isoproterenol hydrochloride]
% 25 nM CA200645 binding: 98.6 ± 14.4%

Br.CN1CCc2cc(O)cc3c2[C@H]1Cc1ccc(O)c(O)c1-3
% 25 nM CA200645 binding: 83.0 ± 14.1%

Cl.O=C(c1ccc(OCCCc2cnc[nH]2)cc1)C1CC1 [Ciproxifan hydrochloride]
% 25 nM CA200645 binding: 102.4 ± 6.2%

Cn1c(=O)[nH]c2ncn(C)c2c1=O [1,7-Dimethylxanthine]
% 25 nM CA200645 binding: 100.9 ± 19.4%

CCCN(CCC)CCc1ccc(O)c(O)c1 [Dipropyldopamine hydrobromide]
% 25 nM CA200645 binding: 101.8 ± 8.0%

C=CCc1ccccc1OCC(O)CNC1(C)CCC(C(C)(C)NC(=O)CBr)CC1 (stereo not shown) [Bromoacetyl alprenolol menthane]
% 25 nM CA200645 binding: 102.8 ± 4.8%

C[N+](C)(C)CC#CCOC(=O)Nc1cccc(Cl)c1.[Cl-] [McN-A-343]
% 25 nM CA200645 binding: 93.8 ± 10.4%

CC(C)N(CCC(C(N)=O)(c1ccccc1)c1ccccn1)C(C)C (stereo not shown) [Disopyramide phosphate]
% 25 nM CA200645 binding: 98.5 ± 7.6%

NC(=O)C(=O)O [Sodium Oxamate]
% 25 nM CA200645 binding: 96.5 ± 14.4%

Cl.Cl.O=c1ccc2[nH]cc(C3=CCNCC3)c2[nH]1 [CP-93129 dihydrochloride hydrate]
% 25 nM CA200645 binding: 102.1 ± 6.9%

COC(=O)[C@@H](N)Cc1ccc(O)c(O)c1.Cl
% 25 nM CA200645 binding: 98.6 ± 13.3%

CC[C@@H](CO)NC(=O)[C@@H]1C=C2c3cccc4c3c(cn4C)C[C@H]2N(C)C1 [Methysergide maleate]
% 25 nM CA200645 binding: 92.3 ± 21.2%

O=C(O)/C=C\C(=O)O.O=C(O)/C=C\C(=O)O.c1cc(CN2CCCCC2)cc(OCCCNc2nc3ccccc3s2)c1 [SKF 95282 dimaleate]
% 25 nM CA200645 binding: 120.1 ± 40.0%

Br.NC1CCc2cc(O)c(O)cc2C1 (stereo not shown) [6,7-ADTN hydrobromide]
% 25 nM CA200645 binding: 100.4 ± 8.1%

C[C@@H]1C(=O)NC2=Nc3cccc(Cl)c3CN21 [Quazinone]
% 25 nM CA200645 binding [1]: 93.4 ± 5.4%

CC[C@]1(O)C[C@@H]2CN(CCc3c([nH]c4ccccc34)[C@@](C(=O)OC)(c3cc4c(cc3OC)N(C)[C@H]3[C@@](O)(C(=O)OC)[C@H](OC(C)=O)[C@]5(CC)C=CCN6CC[C@]43[C@@H]65)C2)C1.O=S(=O)(O)O [Vinblastine sulfate salt]
% 25 nM CA200645 binding: 98.2 ± 16.0%

Cn1cnc2c(NCc3ccccc3)nc(NCCO)nc21 [Olomoucine]
% 25 nM CA200645 binding: 97.0 ± 10.1%

CC(C)NC[C@H](O)COc1cccc2ccccc12 [(S)-Propranolol hydrochloride]
% 25 nM CA200645 binding: 100.2 ± 8.9%

NC(CO)(CO)CO.O=C(c1ccccc1)c1ccc2n1CCC2C(=O)O (stereo not shown) [Ketorolac tris salt]
% 25 nM CA200645 binding: 93.7 ± 13.0%

CN(C)CC/C=C1/c2ccccc2Sc2ccc(Cl)cc21 [Chlorprothixene hydrochloride]
% 25 nM CA200645 binding: 96.6 ± 7.7%

CCCNC(=O)NS(=O)(=O)c1ccc(Cl)cc1 [Chlorpropamide]
% 25 nM CA200645 binding: 97.6 ± 7.8%

COc1ccc(C(=O)N2CCCC2=O)cc1 [Aniracetam]
% 25 nM CA200645 binding: 95.9 ± 3.1%

NCCCCN=C(N)N [Agmatine sulfate]
% 25 nM CA200645 binding: 97.6 ± 11.6%

CCOC(=O)c1cnc2c(cnn2CC)c1NN=C(C)C [etazolate hydrochloride, reference compound]
hit in LOPAC primary screen (inhibited the binding of CA200645 by >40%) (10 μM compound, 25 nM CA200645, A3AR CHO cells): identified
% 25 nM CA200645 binding [2]: 46.2 ± 5.3%

CCCOc1ccccc1-c1nc2nn[nH]c2c(=O)[nH]1 [Zaprinast]
% 25 nM CA200645 binding [1]: 109.4 ± 6.4%

CN1CCN(C2Cc3ccccc3Sc3ccc(Cl)cc32)CC1.O=C(O)/C=C\C(=O)O (racemic) [(±)-Octoclothepin maleate]
% 25 nM CA200645 binding (% of control wells (1% DMSO and 25 nM CA200645), compounds at 10 µM, […], mean ± SD, three experiments in duplicate): 83.2 ± 25.2%

N.N.N.Nc1ncnc2c1ncn2C1OC(COP(=O)(O)OP(=O)(O)OP(=O)(O)OP(=O)(O)OC[C@H]2O[C@@H](n3cnc4c(N)ncnc43)C(O)C2O)[C@@H](O)C1O (stereo in doubt)
% 25 nM CA200645 binding: 101.2 ± 10.2%

Nc1c(S(=O)(=O)O)cc(Nc2ccc(Nc3nc(Cl)nc(Nc4cccc(S(=O)(=O)O)c4)n3)c(S(=O)(=O)O)c2)c2c1C(=O)c1ccccc1C2=O [Reactive Blue 2]
% 25 nM CA200645 binding: 24.5 ± 2.7%

CCOC(=O)[C@]12CC1/C(=N\O)c1ccccc1O2 (mixture of isomers) [CPCCOEt]
% 25 nM CA200645 binding [2]: 88.3 ± 3.9%

C=C1C(=O)O[C@H]2[C@H]1CC/C(C)=C/CC[C@@]1(C)O[C@@H]21 [Parthenolide]
% 25 nM CA200645 binding [2]: 98.5 ± 15.3%

Cn1c(=O)c2[nH]c(-c3ccc(S(=O)(=O)O)cc3)nc2n(C)c1=O [8-(p-Sulfophenyl)theophylline]
% 25 nM CA200645 binding: 97.2 ± 13.7%

R(-)-Me5
% 25 nM CA200645 binding: 100.1 ± 8.0%

c1ccc2c(c1)CC(N1CCN(c3cccc4c3OCCO4)CC1)C2 [S15535]
% 25 nM CA200645 binding: 97.0 ± 1.3%

O=C(O)[C@@H]1CCN1 [L-azetidine-2-carboxylic acid]
% 25 nM CA200645 binding: 100.7 ± 4.1%

NCCCNCCCCNCCCN [Spermine tetrahydrochloride]
% 25 nM CA200645 binding: 105.8 ± 16.0%

N[C@@H](Cc1ccc(O)c(I)c1)C(=O)O [3-Iodo-L-tyrosine]
% 25 nM CA200645 binding: 96.8 ± 8.8%

CN(C)c1cc2c(Nc3ccc4c(cnn4Cc4ccccc4)c3)ncnc2cn1 [GW2974]
% 25 nM CA200645 binding: 57.3 ± 11.9%

CC(C)NCC(O)COc1cccc2ccccc12.Cl (racemic) [(±)-Propranolol hydrochloride]
% 25 nM CA200645 binding: 106.0 ± 10.5%

O=C1OC(=O)[C@H]2[C@@H]1[C@@H]1CC[C@H]2O1 [Norcantharidin]
% 25 nM CA200645 binding: 108.5 ± 19.2%

C[N+]1(C)C2CCC1CC(OC(=O)c1c[nH]c3ccccc13)C2.[I-] (stereo not shown)
% 25 nM CA200645 binding: 95.6 ± 4.9%

CC(=O)SCC[N+](C)(C)C.[Cl-] [Acetylthiocholine chloride]
% 25 nM CA200645 binding: 95.7 ± 4.8%

N=C(N)NC(=O)c1nc(Cl)c(N2CCCCCC2)nc1N [5-(N,N-hexamethylene)amiloride]
% 25 nM CA200645 binding: 87.5 ± 4.4%

CN1CC(=O)NC1=NC(=O)Nc1cccc(Cl)c1 [Fenobam]
% 25 nM CA200645 binding: 81.9 ± 15.0%

Cc1[nH]c(=O)c(C#N)cc1-c1ccncc1 [Milrinone]
% 25 nM CA200645 binding: 97.0 ± 4.9%

OCC(CO)(CBr)CBr [BBMP]
% 25 nM CA200645 binding: 93.9 ± 9.9%

Cc1ccc(-c2cc(C(F)(F)F)nn2-c2ccc(S(N)(=O)=O)cc2)cc1 [Celecoxib]
% 25 nM CA200645 binding: 72.6 ± 20.4%

C=C[C@H]1C[N@@]2CC[C@H]1C[C@@H]2[C@@H](O)c1ccnc2ccc(OC)cc12 [Quinidine sulfate]
% 25 nM CA200645 binding: 111.6 ± 16.6%

Nc1nc(SCc2ccc([N+](=O)[O-])cc2)c2ncn([C@@H]3O[C@H](CO)[C@@H](O)[C@H]3O)c2n1 [S-(4-Nitrobenzyl)-6-thioguanosine]
% 25 nM CA200645 binding: 91.9 ± 3.2%

CC(N)Cc1c[nH]c2ccc(OCc3cccs3)cc12 (stereo not shown) [BW 723C86]
% 25 nM CA200645 binding: 102.2 ± 11.4%

COc1ccc(C(CN(C)C)C2(O)CCCCC2)cc1 (stereo not shown) [Venlafaxine hydrochloride]
% 25 nM CA200645 binding: 97.3 ± 8.5%

CC(C)(C)c1cc(/C=C(\C#N)C(N)=S)cc(C(C)(C)C)c1O [Tyrphostin AG 879]
% 25 nM CA200645 binding: 57.5 ± 23.0%

Br.Br.CN(C)CCCc1cc(C(=O)Nc2ccc(-c3ccncc3)cc2)ccc1O [GR 55562 dihydrobromide]
% 25 nM CA200645 binding: 92.8 ± 13.3%

C[C@H](Cc1ccccc1)Nc1ncnc2c1ncn2[C@@H]1O[C@H](CO)[C@@H](O)[C@H]1O [R(-)-N6-(2-Phenylisopropyl)adenosine]
% 25 nM CA200645 binding: 69.2 ± 26.4%

N=c1ccn2c(n1)O[C@H]1[C@H](O)[C@@H](CO)O[C@H]12 [Ancitabine hydrochloride]
% 25 nM CA200645 binding: 106.9 ± 5.2%

CC(=O)NCCc1c[nH]c2ccccc12 [N-Acetyltryptamine]
% 25 nM CA200645 binding: 99.0 ± 14.1%

CC(C)C(=O)c1c(C(C)C)nn2ccccc12 [Ibudilast]
% 25 nM CA200645 binding: 82.8 ± 12.0%

NCC1(CC(=O)O)CCCCC1 [Gabapentin]
% 25 nM CA200645 binding: 80.7 ± 22.8%

c1ccc2cc(-c3ncc[nH]3)ccc2c1 [Benazoline oxalate]
% 25 nM CA200645 binding: 98.8 ± 14.3%

Reference: paper PMC5733478, “A Non-imaging High Throughput Approach to Chemical Library Screening at the Unmodified Adenosine-A3 Receptor in Living Cells” (Frontiers in Pharmacology, 2017)
